A word on the IC50: it is the concentration needed to halve the response being measured.

Results on two molecules are retold here after PMC5732813, “Novel piplartine-containing ruthenium complexes: synthesis, cell growth inhibition, apoptosis induction and ROS production on HCT116 cells” (Oncotarget, 2017).

Assay [1] has as its system WT SV40 MEF (wild-type immortalized mouse embryonic fibroblast). As to the kind of experiment: Cytotoxic activity, alamar blue assay, WT SV40 MEF. The settings on record: Mus musculus, Fibroblast; WT SV40 MEF, 72 h incubation, alamar blue; read-out: IC50. It is filed as cell-based. An excerpt: (§1) HCT116 (human colon carcinoma), HepG2 (human hepatocellular carcinoma), HSC-3 (human oral squamous cell carcinoma), SCC-4 (human oral squamous cell carcinoma), SCC-9 (human oral squamous cell carcinoma), HL-60 (human promyelocytic leukemia), K-562 (human chronic myelogenous leukemia), B16-F10 (murine melanoma), MRC-5 (human lung fibroblast), WT SV40 MEF (wild-type immortalized mouse embryonic fibroblast) and BAD KO SV40 MEF (BAD gene knockout immortalized mouse embryonic fibroblast) cell lines were obtained from the American Type Culture Collection (ATCC, Manassas, VA, USA) and cultured in RPMI-1640 medium (Gibco-BRL, Gaithersburg, MD, USA) with 10% fetal bovine serum (Life, Carlsbad, CA, USA), 2 mM L-glutamine (Vetec Química Fina, Duque de Caxias, RJ, Brazil) and 50 μg/mL gentamycin (Life, Carlsbad, CA, USA). Adherent cells were collected by treatment with 0.25% trypsin EDTA solution (Gibco-BRL, Gaithersburg, MD, USA). All cell lines were cultured in flasks at 37°C in 5% CO2 and sub-cultured every 3-4 days to maintain exponential growth.
(§2) Cell viability was quantified using the alamar blue assay, according to Ahmed et al.. Cells were inserted in 96-well plates for all experiments (7 x 10^4 cells/mL for adherent cells or 3 x 10^5 cells/mL for suspended cells in 100 μL of medium). […] Negative controls received the vehicle that was used for diluting the compounds tested.

Assay [2] deals with BAD KO SV40 MEF (BAD gene knockout immortalized mouse embryonic fibroblast). The assay can be described thus: Cytotoxic activity, alamar blue assay, BAD KO SV40 MEF. It is filed as cell-based. As to conditions: Mus musculus, Fibroblast; BAD KO SV40 MEF, 72 h incubation, alamar blue; read-out: IC50.
Source text: as §1, §2
On the technique in general: The colour change of resazurin is a common sign of viable cells or microbes.

Assay [3] relates to PBMC (human peripheral blood mononuclear cells). As to the kind of experiment: Cytotoxic activity, alamar blue assay, PBMC non-cancer cells. As to conditions: PBMC non-cancer cells, 72h of incubation, alamar blue; with 95% confidence interval; read-out: IC50. In kind it is cell-based. As for the experimental part:
PBMCs were washed and resuspended at a concentration of 3 x 10^5 cells/mL in RPMI 1640 medium with 20% fetal bovine serum, 2 mM glutamine and 50 μg/mL gentamycin at 37°C with 5% CO2. […] The Research Ethics Committee of the Oswaldo Cruz Foundation (Salvador, Bahia, Brazil) approved the experimental protocol (# 031019/2013). All participants signed a written informed consent to participate in the study.
as §2

Assay [4] deals with cancer multicellular spheroids formed from HCT116 cells. As to the kind of experiment: 3D multicellular spheroids culture, alamar blue assay. In kind it is cell-based, human. As to conditions: 3D spheroids of HCT116, 72 h treatment, alamar blue; read-out: IC50. The method, then: as §2
HCT116 cells were cultivated in 3D multicellular spheroids. Briefly, 100 μL of a solution of cells (0.5 x 10^6 cells/mL) were inserted in 96-well plate with a cell-repellent surface (Greiner Bio-One, Kremsmünster, Austria) and cultured in RPMI 1640 medium with 10% fetal bovine serum, 2 mM glutamine, 3% matrigel (BD Biosciences, San Jose, CA, EUA) and 50 μg/mL gentamycin at 37°C with 5% CO2. […] Negative control received the vehicle that was used for diluting the compounds tested. In the end of the experiment, morphological changes were examined by light microscopy (Olympus BX41, Tokyo, Japan) using Image-Pro software (Media Cybernetics, Inc. Silver Spring, USA) and the cell viability was determined by alamar blue assay as described above.

The test system of assay [5] is MRC-5 (human lung fibroblast). As to the kind of experiment: Cytotoxic activity, alamar blue assay, MRC-5 non-cancer cells. It is filed as cell-based. As to conditions: MRC-5 non-cancer cells, 72h of incubation, alamar blue; with 95% confidence interval; read-out: IC50.
Source text: as §1, §2

Assay [6] has as its system HL-60 (human promyelocytic leukemia). The assay can be described thus: Cytotoxic activity, alamar blue assay, HL-60. In kind it is cell-based. The settings on record: HL-60, 72h of incubation, alamar blue; with 95% confidence interval.
Source text: as §1, §2

The test system of the next assay is HCT116 cells. The assay can be described thus: Internucleosomal DNA fragmentation and cell cycle distribution (DNA content, flow cytometry). As to conditions: HCT116, 3 μM, mean ± S.E.M. In kind it is cell-based, human. As for the experimental part:
Cells were harvested in a permeabilization solution containing 0.1% triton X-100 (Sigma Chemical Co. St Louis, MO, USA), 2 μg/mL propidium iodide (Sigma Chemical Co. St Louis, MO, USA), 0.1% sodium citrate and 100 μg/mL RNAse (Sigma Chemical Co. St Louis, MO, USA) and incubated in the dark for 15 min at room temperature.

The subject of assay [7] is SCC-4 (human oral squamous cell carcinoma). The assay can be described thus: Cytotoxic activity, alamar blue assay, SCC-4. It is filed as cell-based. As to conditions: SCC-4, 72h of incubation, alamar blue; with 95% confidence interval.
Source text: as §1, §2

As to `O=c1[nH]cc(F)c(=O)[nH]1` [5-fluorouracil], the IC50 in assay [1] worked out at 1.7 µM; in assay [2] it was 7.3 µM.
In the case of `O=C1[O][Pt]2([NH][C@@H]3CCCC[C@H]3[NH]2)[O]C1=O` [Oxaliplatin], the IC50 in assay [3] was 9.4 µM; in assay [4] it was 9.3 µM; in assay [5] it was 1.3 µM; in assay [6] it was 0.6 µM; in assay [7], 7.7 µM. Also, the entries for the “DNA content (%) S” value in the assay with HCT116 cells (24h) and with HCT116 cells (48h) were 16.9 ± 2.0% and 17.4 ± 1.9%, respectively.
